Data reported in patent publication US9499509B2, “Dihydrochalcone derivatives and their use as antibiotic agents” (UNIVERSITÉ DU QUÉBEC À CHICOUTIMI, priority 2012, dated 2016).
Converted amounts (≈) assume the structure as drawn. Like-named read-outs stand apart in the source and are kept apart here.

Columns and labels:
S. epidermidis = assay: Antibiotic assay (resazurin, Example 1), S. epidermidis strains; details: Staphylococcus epidermidis
Procedure: The antibiotic assays were performed in 96-well plates (BD Falcon). The bacteria strains were inoculated in Nutrient Broth (BD) for the gram negative bacteria and Tryptic soy broth (BD) with 10% of defibrinated sheep blood (PML microbiological) for gram positive strain. All bacteria strains were dosed by spectrophotometry at 660 nm where 1 D.O=2×10^8 bacteria/mL. All bacteria were plated in their respective broth at a concentration of 450 000 bacteria/mL.
Compounds I, II and III were diluted in methanol and the above-noted antibiotic agents were diluted in water. The solvent concentration was 0.25%, which was not toxic for the bacteria. Compounds I, II and III and the above-noted antibiotic agents were tested at 8 different concentrations.
Each well contained: 100 μL of bacteria, 50 μL of the compounds tested (compound I, II, III or the above-noted antibiotic agent) and 50 μL of a 4% resazurin (Sigma) solution. The plates were incubated at 37° C. for 5 h. The fluorescence was read using a Fluoroskan Ascent™ FL (thermo) using an excitation wavelength of 530 nm and an emission wavelength of 590 nm.
Two different strains of Staphylococcus were tested, namely the S. epidermidis and the S. aureus strains.

[1] = tested on: S. aureus wild type strain (ATCC 25923); assay: Antibiotic assay (resazurin, Example 1), S. aureus wild type; type: cell-based, Staphylococcus aureus; details: Staphylococcus aureus, ATCC25923, S. aureus WT ATCC 25923
Procedure: (§1) Bacteria Strain. […] The MRSA were obtained as further described below.
(§2) Antibiotic agents. Cyprofloxacin and erythromycin were provided by Sigma-Aldrich. Gentamicin sulfate and vancomycin hydrochloride were provided by Calbiochem.
(§3) MRSA. Ten (10) strains of MRSA obtained as described above were tested along with an S. aureus wild type (WT) strain (ATCC25923).

Enterococcus faecalis = assay: Antibiotic assay (resazurin, Example 1), Enterococcus faecalis; type: cell-based; details: for IC50: read-out: IC50
Procedure: as §1, §2
(§4) Five additional strains were tested: Streptococcus pneumoniae, Streptococcus agalactiae, Streptococcus pyogenes, Enterococcus faecalis and Corynebacterium jeikeium.

Streptococcus pneumoniae = assay: Antibiotic assay (resazurin, Example 1), Streptococcus pneumoniae; type: cell-based; details: for IC50 / MIC: Streptococcus pneumoniae; for IC50: read-out: IC50; for MIC: read-out: Minimum Inhibitory Concentration (MIC)
Procedure: as §1, §2, §4

Corynebacterium jeikeium = assay: Antibiotic assay (resazurin, Example 1), Corynebacterium jeikeium; type: cell-based; details: Corynebacterium jeikeium, Coryne. jeikeium 14139
Procedure: as §1, §2, §4

Streptococcus pyogenes = assay: Antibiotic assay (resazurin, Example 1), Streptococcus pyogenes; type: cell-based; details: Streptococcus pyogenes; for IC50: read-out: IC50; for MIC: read-out: Minimum Inhibitory Concentration (MIC)
Procedure: as §1, §2, §4

[2] = tested on: methicillin-resistant Staphylococcus aureus (MRSA) strains; assay: Antibiotic assay (resazurin, Example 1), MRSA strains; type: cell-based
Text: as §1, §2
Isolation and identification of methicillin-resistant Staphylococcus aureus (MRSA) strains. From March 2007 to March 2008, 35 screening swabs from nares (n=31), throat (n=3), Groin pus (n=1) were obtained from patients hospitalized at Chicoutimi hospital. Identification of S. aureus was performed using the Slidex Staph-Kit (bioMerieux Vitek, Inc., Hazelwood, Mo.) according to the manufacturer's instructions. Quality control was performed with MRSA strain ATCC 43300 and S. aureus strain ATCC 25923. In addition, S. aureus profile was determined with API Staph test strip with bacterial suspension of saline McFarland of 0.5 (bioMerieux, Durham, N.C.) according to the manufacturer's protocol. API Staph strips were held for 24 h before the results were read. A latex agglutination (SLIDEX) test detecting methicilin resistance in Staphylococci based on the production of low-affinity PBP2a, which is encoded by the mecA gene was performed on all strains. An antibiogram was also performed to confirm the identification of MRSA strains using disk diffusion test.
Antibiotic susceptibility testing using disk diffusion method. The antimicrobial activity of different classes of antibiotics of the potential MRSA was determined by diffusion method (Kirby-Bauer) as described by NCCLS. The antibiotics tested included: penicillin (10 units), amoxicillin/clavulanic acid (20/10 μg), ciprofloxacin (5 μg), moxifloxacin (5 μg), levofloxacin (5 μg), clindamycin (15 μg), erythromycin (15 μg), cefoxitin (30 μg), linezolid (30 μg), trimethoprim/sulfomethoxazole (1.25/23.75 μg), rifampicin (5 μg), gentamicin (10 μg) and vancomycin (30 μg). The agar medium had pH 7.2 to 7.4 before inoculing potentiel MRSA. The antibiotics were maintained at 8° C. or lower −14° C. according to manufacturer's recommendations. The pure culture was inoculated on a non-selective plate for 18-24 h. Each colony was collected with a wire loop and transfered the growth to a tube containing 4 to 5 mL of a tryptic-soy broth. The inoculum density was standarized with BaSO4 using 0.5 McFarland standard. All strains were incubated at 37° C. until it achieves or exceeds the turbidity of 0.5 McFarland standard. Inoculation of the dried surface (Muller-Hinton agar plate) by streaking the swab over the entire sterile agar surface. This procedure was repeated two more times. After 15 min, the appropriate disk were applied on the surface with a sterile forceps. The inverted plates was placed in a incubator at 37° C./air/16 to 18 h or 24 h for vancomycin. The inhibition zones were measured with a millimetric ruler. Interpretation of zone sizes by references of the manufacturer. Quality control organisms used were ATCC strains number 25923.
as §3

S. aureus = assay: Antibiotic assay (resazurin, Example 1), S. aureus strains of Table 3; type: cell-based, Staphylococcus aureus; details: for IC50: read-out: IC50; for MIC: read-out: Minimum Inhibitory Concentration (MIC)
Text: as §1, §2

[3] = read-out: Minimum Inhibitory Concentration (MIC)
[4] = Staphylococcus aureus, S. aureus 14094

O=C(O)c1cn(C2CC2)c2cc(N3CCNCC3)c(F)cc2c1=O [Ciprofloxacin, reference compound]
IC50 (S. epidermidis; S. epidermidis 14069): 31 ± 2 µM
IC50 (S. epidermidis; S. epidermidis 14085): 26.3 ± 0.8 µM
IC50 (S. epidermidis; S. epidermidis 14093): < 1.56 µM
IC50 (S. epidermidis; S. epidermidis 14134): 44 ± 1 µM
IC50 (S. epidermidis; S. epidermidis 14143): 80 ± 7 µM
MIC (S. epidermidis; read-out: Minimum Inhibitory Concentration (MIC), S. epidermidis 14069): > 200 µM
MIC (S. epidermidis; read-out: Minimum Inhibitory Concentration (MIC), S. epidermidis 14085): > 200 µM
MIC (S. epidermidis; read-out: Minimum Inhibitory Concentration (MIC), S. epidermidis 14093): 77.1 µM (≈ 25.5 µg/mL)
MIC (S. epidermidis; read-out: Minimum Inhibitory Concentration (MIC), S. epidermidis 14134): > 200 µM
MIC (S. epidermidis; read-out: Minimum Inhibitory Concentration (MIC), S. epidermidis 14143): > 200 µM
IC50 ([1]; read-out: IC50): 0.4 ± 0.2 µM
MIC [1, 3]: 47.9 µM (≈ 15.9 µg/mL)
Minimum Inhibitory Concentration (MIC) (Enterococcus faecalis; Ent. Faecalis 14115): (>200) μM
IC50 (Enterococcus faecalis; Enterococcus faecalis, Ent. Faecalis 14078): 15 ± 2 µM
MIC (Enterococcus faecalis; Enterococcus faecalis, Ent. Faecalis 14078, read-out: Minimum Inhibitory Concentration (MIC)): > 200 µM
IC50 (Enterococcus faecalis; Enterococcus faecalis, Ent. Faecalis 14115): > 200 µM
activity against Enterococcus faecalis 14115 strain (Enterococcus faecalis; in words): not active
IC50 (Streptococcus pneumoniae; Strep. pneumoniae 14070): > 200 µM
MIC (Streptococcus pneumoniae; Strep. pneumoniae 14070): > 200 µM
IC50 (Streptococcus pneumoniae; Strep. pneumoniae 14112): 63 ± 6 µM
MIC (Streptococcus pneumoniae; Strep. pneumoniae 14112): 200 µM (≈ 66.3 µg/mL)
IC50 (Streptococcus pneumoniae; Strep. pneumoniae 14138): > 200 µM
MIC (Streptococcus pneumoniae; Strep. pneumoniae 14138): > 200 µM
IC50 (Streptococcus pneumoniae; Strep. pneumoniae 14144): > 200 µM
MIC (Streptococcus pneumoniae; Strep. pneumoniae 14144): > 200 µM
IC50 (Streptococcus pneumoniae; Strep. pneumoniae 14148): 56 ± 6 µM
MIC (Streptococcus pneumoniae; Strep. pneumoniae 14148): 200 µM (≈ 66.3 µg/mL)
activity against Streptococcus pneumoniae strain 14144 (Streptococcus pneumoniae; in words): not active
IC50 (Corynebacterium jeikeium; read-out: IC50): 1.42 ± 0.07 µM
MIC (Corynebacterium jeikeium; [3]): 16.4 µM (≈ 5.43 µg/mL)
IC50 (Streptococcus pyogenes; Strep. pyogenes 14149): 43 ± 2 µM
MIC (Streptococcus pyogenes; Strep. pyogenes 14149): 169 µM (≈ 56 µg/mL)
IC50 (Streptococcus pyogenes; Strep. pyogenes 14152): 0.6 ± 1 µM
MIC (Streptococcus pyogenes; Strep. pyogenes 14152): 37.4 µM (≈ 12.4 µg/mL)
Minimum Inhibitory Concentration (MIC) ([2]; MRSA 1): (>186) μM
Minimum Inhibitory Concentration (MIC) ([2]; MRSA 3): (>186) μM
Minimum Inhibitory Concentration (MIC) ([2]; MRSA 4): (>186) μM
Minimum Inhibitory Concentration (MIC) ([2]; MRSA 5): (>186) μM
Minimum Inhibitory Concentration (MIC) ([2]; MRSA 6): (>186) μM
Minimum Inhibitory Concentration (MIC) ([2]; MRSA 7): (>186) μM
Minimum Inhibitory Concentration (MIC) ([2]; MRSA 8): (>186) μM
Minimum Inhibitory Concentration (MIC) ([2]; MRSA 9): (>186) μM
Minimum Inhibitory Concentration (MIC) ([2]; MRSA 10): (>186) μM
IC50 ([2]; Staphylococcus aureus, MRSA, MRSA1, read-out: IC50): 102 ± 6 µM
IC50 ([2]; Staphylococcus aureus, MRSA, MRSA2, read-out: IC50): 156 ± 11 µM
MIC ([2]; Staphylococcus aureus, MRSA, MRSA2, read-out: Minimum Inhibitory Concentration (MIC)): > 186 µM
IC50 ([2]; Staphylococcus aureus, MRSA, MRSA3, read-out: IC50): > 186 µM
IC50 ([2]; Staphylococcus aureus, MRSA, MRSA4, read-out: IC50): 134 ± 7 µM
IC50 ([2]; Staphylococcus aureus, MRSA, MRSA5, read-out: IC50): 109 ± 4 µM
IC50 ([2]; Staphylococcus aureus, MRSA, MRSA6, read-out: IC50): 131 ± 9 µM
IC50 ([2]; Staphylococcus aureus, MRSA, MRSA7, read-out: IC50): 128 ± 9 µM
IC50 ([2]; Staphylococcus aureus, MRSA, MRSA8, read-out: IC50): 119 ± 9 µM
IC50 ([2]; Staphylococcus aureus, MRSA, MRSA9, read-out: IC50): 106 ± 11 µM
IC50 ([2]; Staphylococcus aureus, MRSA, MRSA10, read-out: IC50): 122 ± 16 µM
IC50 ([2]; Staphylococcus aureus, MRSA, all MRSA strains, read-out: IC50 values against the MRSA strains): 100 to 150 µM
IC50 (S. aureus; S. aureus 14108): < 1.56 µM
IC50 (S. aureus; S. aureus 14118): < 1.56 µM
IC50 (S. aureus; S. aureus 14154): < 1.56 µM
IC50 (S. aureus; [4]): < 1.56 µM
MIC (S. aureus; [4]): 87.6 µM (≈ 29 µg/mL)
MIC (S. aureus; Staphylococcus aureus, S. aureus 14108): 66.8 µM (≈ 22.1 µg/mL)
MIC (S. aureus; Staphylococcus aureus, S. aureus 14118): 65.1 µM (≈ 21.6 µg/mL)
MIC (S. aureus; Staphylococcus aureus, S. aureus 14154): 25.1 µM (≈ 8.32 µg/mL)
